Experimental data: US12286632B2, “Rationally-designed synthetic peptide shuttle agents for delivering polypeptide cargos from an extracellular space to the cytosol and/or nucleus of a target eukaryotic cell, uses thereof, methods and kits relating to same” (Feldan Bio Inc., priority 2016, dated 2025)
Ends that are not written are not given here. Peptide text beside a SMILES is read from it.

Key:
HeLa cells [1] = assay: Plasmid DNA (pEGFP-C1) transfection by peptides (% cells with GFP signal, cell viability); conditions: DNA transfection in HeLa cells using peptides; pEGFP-C1 plasmid
in vitro [2] = conditions: human, HeLa cells
HeLa cells [3] = assay: GFP-NLS protein transduction assay (flow cytometry: Pos cells %, viability %, relative fluorescence intensity; microscopy); conditions: HeLa cells
in vitro [4] = conditions: human, HeLa cells; for viability: Cell viability (%) (±St Dev.; n = 3)
HeLa cells [5] = conditions: human, 10 s, 50 µM
THP-1 cells = assay: HOXB4-WT transduction: target gene mRNA by real-time PCR (Fold over control) and total RNA (ng/μL) as marker for cell viability; assay type: cell-based, human; conditions: THP-1, serum
Protocol: Control and treated cells are transferred to separate sterile 1.5-mL tubes and centrifuged for 5 minutes at 300g. The cell pellets are resuspended in appropriate buffer to lyse the cells. RNAase-free 70% ethanol is then added followed by mixing by pipetting. The lysates are transferred to an RNeasy™ Mini spin column and centrifuged 30 seconds at 13000 RPM. After several washes with appropriate buffers and centrifugation steps, the eluates are collected in sterile 1.5-mL tubes on ice, and the RNA quantity in each tube is then quantified with a spectrophotometer. For DNase treatment, 2 μg of RNA is diluted in 15 μL of RNase-free water. 1.75 μL of 10X DNase buffer and 0.75 μL of DNase is then added, followed by incubation at 37° C. for 15 minutes. For reverse transcriptase treatment, 0.88 μL of EDTA […] is added, followed by incubation at 75° C. for 5 minutes. In a PCR tube, […] of DNase-treated RNA is mixed with 4 μL of iScript™ Reverse transcription Supermix (5X) and […] of nuclease-free water. The mix is incubated in a PCR machine with the following program: 5 min at 25° C., 30 min at 42° C. and 5 min at 85° C. Newly synthesized cDNA is transferred in sterile 1.5-mL tubes and diluted in 2 μL of nuclease-free water. 18 μL per well of a qPCR machine (CFX-96™) mix is then added in a PCR plate for analysis.
Briefly, THP-1 cells were plated at 30 000 cells/well one day before transduction. HOXB4-WT recombinant protein ([…]; Example 14.1) was co-incubated with different concentrations of His-CM18-PTD4 ([…]) and then exposed to THP-1 cells for 2.5 hours in the presence of serum. The cells were subjected to real time-PCR analysis as described in Example 14.2 to measure the mRNA levels of a target gene as a marker for HOXB4 activity, which was then normalized to the target gene mRNA levels detected in the negative control cells (no treatment), to obtain a “Fold over control” value. Total RNA levels (ng/μL) were also measured as a marker for cell viability.
Briefly, THP-1 cells were plated at 30 000 cells/well one day before the first time course experiment. HOXB4-WT recombinant protein (1.5 μM; Example 14.1) was co-incubated with His-CM18-PTD4 (0.8 μM) and then exposed to THP-1 cells for 0, 2.5, 4, 24 or 48 hours in presence of serum. The cells were subjected to real time-PCR analysis as described in Example 14.2 to measure mRNA levels of a target gene as a marker for HOXB4 activity, which was then normalized to the target gene mRNA levels detected in the negative control cells (no treatment), to obtain a “Fold over control” value. Total RNA levels (ng/μL) were also measured as a marker for cell viability.
Briefly, THP-1 cells were plated at 30 000 cells/well one day before the first time course experiment. HOXB4-WT recombinant protein (0.3 μM; Example 14.1) was co-incubated with His-CM18-PTD4 (0.8 μM) and then exposed to THP-1 cells for 0, 0.5, 1, 2, 2.5, 3 or 4 hours in presence of serum. The cells were subjected to real time-PCR analysis as described in Example 14.2 to measure mRNA levels of a target gene as a marker for HOXB4 activity, which was then normalized to target gene mRNA levels detected in the negative control cells (no treatment), to obtain a “Fold over control” value. Total RNA levels (ng/μL) were also measured as a marker for cell viability.
Briefly, THP-1 cells were plated at 30 000 cells/well one day before the first time course experiment. HOXB4-WT recombinant protein (1.5 μM; Example 14.1) co-incubated with the shuttle agents His-CM18-PTD4, TAT-KALA, EB1-PTD4, His-C(LLKK)3C-PTD4 and His-CM18-PTD4-His at 0.8 μM, and then exposed to THP-1 cells for 2.5 hours in presence of serum. The cells were subjected to real time-PCR analysis as described in Example 14.2 to measure mRNA levels of a target gene as a marker for HOXB4 activity, which was then normalized to target gene mRNA levels detected in the negative control cells (no treatment), to obtain a “Fold over control” value. […]

in vitro [6] = conditions: human, NCI-H196 cells
in vitro [7] = conditions: human, HCC-78 cells
in vitro [8] = conditions: human, THP-1 cells
Protocol: One day before the transduction assay was performed, cells in exponential growth phase were harvested and plated in a 96-well plate (20,000 cells per well). The cells were incubated overnight in appropriate growth media containing FBS (see Example 1). The next day, in separate sterile 1.5 mL tubes, cargo protein at the indicated concentration was pre-mixed (pre-incubated) for 1 or 10 min (depending on the protocol) at 37° C. with the peptide(s) to be tested shuttle agents (0.5 to 5 μM) in 50 μL of fresh medium without serum (unless otherwise specified). The media in wells was removed and the cells were washed three times with freshly prepared phosphate buffered saline (PBS) previously warmed at 37° C. The cells were incubated with the cargo protein/shuttle agent mixture at 37° C. for the indicated time (e.g., 1, 5 or 60 min). After the incubation, the cells were quickly washed three times with freshly prepared PBS and/or heparin (0.5 mg/mL) previously warmed at 37° C. The washes with heparin were required for human THP-1 blood cells to avoid undesired cell membrane-bound protein background in subsequent analyses (microscopy and flow cytometry). The cells were finally incubated in 50 μL of fresh medium with serum at 37° C. before analysis.
One day before the transduction assay was performed, suspension cells in exponential growth phase were harvested and plated in a 96-well plate (20,000 cells per well). The cells were incubated overnight in appropriate growth media containing serum (see Example 1). The next day, in separate sterile 1.5-mL tubes, peptides were diluted in sterile distilled water at room temperature (if the cargo is or comprised a nucleic acid, nuclease-free water was used). Cargo protein(s) were then added to the peptides and, if necessary, sterile PBS or cell culture medium (serum-free) was added to obtain the desired concentrations of shuttle agent and cargo in a sufficient final volume to resuspend the cells (e.g., 10 to 100 μL per well in a 96-well plate). The shuttle agent/peptide was then immediately used for experiments. At least three controls were included for each experiment, including: (1) peptide alone (e.g., at highest concentration tested); (2) cargo alone; and (3) without any cargo or shuttle agent. The cells were centrifuged for 2 minutes at 400g, the medium was then removed and the cells were resuspended in PBS previously warmed at 37° C. The cells were centrifuged again 2 minutes at 400g, the PBS removed, and the cells were resuspended with the cargo protein/peptide mixture at 37° C. for the desired length of time. After that, 200 μL of complete medium was added directly on the cells. Cells were centrifuged for 2 minutes at 400g and the medium was removed. The pellet was resuspended and washed in 200 μL of PBS previously warmed at 37° C. After another centrifugation, the PBS was removed and the cells were resuspended in 50 μL of trypsin-EDTA solution for 2 min. 200 of complete medium was directly added and cells were centrifuged for 2 minutes at 400g. The medium was removed and the cells were resuspended in 200 μL of complete medium.
The cells incubated in 50 μL of fresh medium were directly observed by microscopy (Bright-field and fluorescence) at different power fields (4× to 40×). The cells were observed using a CoolSNAP-PRO™ camera (Series A02D874021) and images were acquired using the Image-Proplus™ software.
The fluorescence of GFP was quantified using flow cytometry (Accuri C6, Becton, Dickinson and Company (BD)).

[9] = Cell viability (%) (±St. Dev.; n = 3)

## CC(C)C[C@H](NC(=O)[C@H](CC(C)C)NC(=O)[C@H](CCCCN)NC(=O)[C@H](CCCCN)NC(=O)[C@H](CC(C)C)NC(=O)[C@H](CC(C)C)NC(=O)[C@H](CCCCN)NC(=O)[C@H](CCCCN)NC(=O)[C@H](CC(C)C)NC(=O)[C@H](CC(C)C)NC(=O)[C@@H](N)CS)C(=O)N[C@@H](CCCCN)C(=O)N[C@@H](CCCCN)C(=O)N[C@@H](CS)C(=O)O [C(LLKK)3] (H-CLLKKLLKKLLKKC-OH; N-terminus and C-terminus assumed)
HeLa cells [1]
  Mean % cells with GFP signal (±St. Dev.; n = 3): 0.00 ± 0.00%
In vitro [2]
  viability: 81.7 ± 2.34%

## HHHHHHCMKVVWEIVLAKYKGGGGRARAASRRARA [FSD42]
HeLa cells [1]
  Mean % cells with GFP signal (±St. Dev.; n = 3): 0.12 ± 0.02%
HeLa cells [3]; Table C3, GFP-NLS 10 μM, 10 μM of the peptide, 1 min
  Mean % cells with GFP signal (±St. Dev.; n = 3): 1.59 ± 0.39%
In vitro [2]
  viability: 96.7 ± 1.96%
In vitro [4]; [9]
  viability at 1 min, 10 µM: 97.3 ± 1.07%

## GLFEALLELLESLWELLLEAYARAAARQARA [JST-PTD4]
HeLa cells [5]
  Cell viability (%) (±St. Dev.; n = 3): 98.9 ± 0.57%
In vitro [2]
  viability: 70.2 ± 5.39%

## CC(C)C[C@H](NC(=O)[C@H](CCCNC(=N)N)NC(=O)[C@H](CCC(=O)O)NC(=O)CNC(=O)[C@H](CCC(N)=O)NC(=O)[C@@H](NC(=O)[C@H](Cc1c[nH]c2ccccc12)NC(=O)[C@H](CC(C)C)NC(=O)[C@H](CCCCN)NC(=O)[C@H](CC(C)C)NC(=O)[C@H](CC(C)C)NC(=O)[C@H](CCCNC(=N)N)NC(=O)[C@H](CO)NC(=O)[C@H](Cc1c[nH]c2ccccc12)NC(=O)[C@H](CC(C)C)NC(=O)[C@H](CS)NC(=O)[C@H](CC(C)C)NC(=O)[C@H](CC(C)C)NC(=O)[C@H](Cc1c[nH]cn1)NC(=O)[C@H](Cc1c[nH]cn1)NC(=O)[C@H](Cc1c[nH]cn1)NC(=O)[C@H](Cc1c[nH]cn1)NC(=O)[C@H](Cc1c[nH]cn1)NC(=O)[C@@H](N)Cc1c[nH]cn1)[C@@H](C)O)C(=O)N[C@@H](CCCCN)C(=O)N[C@@H](C)C(=O)N[C@@H](CCCCN)C(=O)N[C@@H](CS)C(=O)N[C@@H](C)C(=O)N[C@@H](CCCCN)C(=O)N[C@@H](C)C(=O)N[C@@H](CS)C(=O)N[C@@H](CCC(=O)O)C(=O)N[C@@H](CCCNC(=N)N)C(=O)O [FSD24] (H-HHHHHHLLCLWSRLLKLWTQGERLKAKCAKACER-OH; N-terminus and C-terminus assumed)
HeLa cells [1]
  Mean % cells with GFP signal (±St. Dev.; n = 3): 0.20 ± 0.00%
HeLa cells [3]; Table B2, GFP-NLS cargo
  Mean % cells with GFP signal (±St. Dev.; n = 3): 37.48 ± 4.08%
In vitro [2]
  viability: 96.5 ± 3.02%
In vitro [4]
  viability: 75.3 ± 3.93%

## HOXB4-WT
THP-1 cells; Table 14.1, 2.5 hours, shuttle 0 μM, HOXB4-WT 1.5 μM (alone)
  Fold over control (mean ± St. Dev): 4.3 ± 0.1
THP-1 cells; Table 14.2, shuttle 0 μM, HOXB4-WT 1.5 μM (alone), exposure 2.5 h
  Fold over control (mean ± St. Dev): 3.4 ± 0.3
THP-1 cells; Table 14.3, shuttle 0.8 μM, HOXB4-WT 0 μM (alone), exposure 2.5 h
  Fold over control (mean ± St. Dev): 1 ± 0.14
THP-1 cells; Table 14.4, shuttle 0.8 μM, HOXB4-WT 0 μM (alone), exposure 2.5 h
  Fold over control (mean ± St. Dev): 1 ± 0.11

## YGRKKRRQRRRCKKALLALALHHLAHLALHLALALKKA [TAT-LAH4]
HeLa cells [1]
  Mean % cells with GFP signal (±St. Dev.; n = 3): 0.15 ± 0.00%
In vitro [2]
  viability: 96.2 ± 2.7%

## KWKLARAFARAIKKLGGSGGGSYARALRRQARTG [FSD10]
In vitro [6]
  viability at 1 min, 8 µM: 81 ± 8.02%
  viability at 1 min, 10 µM: 85.4 ± 7.66%
  viability at 2 min, 5 µM: 83.2 ± 7.51%
In vitro [2]
  viability: 72.4 ± 8.61%
In vitro [4]
  viability: 79.8 ± 4.73%
In vitro [4]; [9]
  viability at 1 min, 8 µM: 83.4 ± 6.38%
  viability at 1 min, 10 µM: 79.8 ± 6.37%
  viability at 2 min, 5 µM: 55.6 ± 4.28%
In vitro [7]
  viability at 1 min, 8 µM: 76.1 ± 6.19%
  viability at 1 min, 10 µM: 63.1 ± 5.27%
  viability at 2 min, 5 µM: 83.1 ± 5.99%
In vitro [8]
  viability at 0.5 min, 2 µM: 96.3 ± 2.16%
  viability at 1 min, 1 µM: 93.5 ± 5.64%
  viability at 1 min, 2 µM: 85.6 ± 5.22%
  viability at 0.025 h, 1 µM: 78.4 ± 6.15%

## RRRRRRRRRWEAKLAKALAKALAKHLAKALAKALKACEA [9Arg-KALA]
HeLa cells [5]
  Cell viability (%) (±St. Dev.; n = 3): 62.8 ± 5.11%

## KWKLARAFARAIKKLYARALRRQARTG [FSD12]
In vitro [6]
  viability at 1 min, 8 µM: 71.9 ± 6.44%
  viability at 1 min, 10 µM: 72.5 ± 6.29%
  viability at 2 min, 5 µM: 76.5 ± 6.37%
In vitro [2]
  viability: 58.6 ± 2.07%
In vitro [4]
  viability: 67.8 ± 4.83%
In vitro [7]
  viability at 1 min, 8 µM: 66.3 ± 6.03%
  viability at 1 min, 10 µM: 46.5 ± 4.18%
  viability at 2 min, 5 µM: 75.1 ± 6.31%
